Results reported in US12582693B2, “Glutathione trisulfide (GSSSG) in neuroprotection” (The General Hospital Corporation, priority 2020, dated 2026).

Legend:
[1] = test system: mice subjected to SCI; assay: Murine model of spinal cord ischemia (SCI) with delayed paraplegia; motor function by Basso Mouse Scale and survival after preconditioning; format: in vivo; details: preconditioning 200 mg/kg IP daily for 4 days in DMSO, vs DMSO alone
Protocol: Briefly, under anesthesia and mechanical ventilation via endotracheal intubation, SCI was induced by placing the first clip on the aortic arch between the left common carotid artery and the left subclavian artery and the second clip on the origin of the left subclavian artery. The completeness of the occlusion was ascertained by an immediate and sustained loss of any detectable pulse pressure in the femoral artery pressure tracing. After 5 min of ischemia, the clips were removed, and the chest was closed in layers. At 10 minutes of reperfusion, the arterial catheter was removed, incisions were closed, and animals were allowed to recover from anesthesia. Temperature of erector spinae muscle was monitored and maintained at 37.5° C. during whole surgery until recovery from anesthesia. In sham-operated mice, whole surgical procedure was performed as described, but no clips were applied. Motor function was quantified serially at pre-SCI, 24, 48, and 72 h after spinal cord ischemia by the Basso Mouse Scale (BMS) (Basso et al., 2006; Kakinohana et al., 2011). The maximum deficit is indicated by a score of 0. Although BMS score<6 (0 to 5) indicates paraplegia, BMS score>6 (6 to 9) indicates ability to walk.
To examine preventive effects of GSSSG against neurofunctional deficit after SCI, mice were subjected to preconditioning with GSSSG treatment before induction of SCI. […]

[2] = test system: SH-SY5Y cells; assay: MPP+-induced SH-SY5Y cell death, cell viability by crystal violet assay; format: cell-based; details: MPP+ 2 mM, DMEM/F12 (20% FBS), 37° C., 24 h
Protocol: The effects of GSSSG on 1-methyl-4-phenylpyridinium (MPP+)-induced neuronal (SH-SY5Y cell) death were evaluated. MPP+-poisoning is an in vitro model of Parkinson's disease.
SH-SY5Y cells were incubated with or without MPP+ (2 mM) in DMEM/F12 (20% FBS) with or without drugs at 37° C. for 24 h. Cell viability was measured using the crystal violet assay.

SMILES | Motor function (Basso Mouse Scale, BMS) / paraplegia after SCI ([1]; SCI 24 h after last administration, BMS up to 72 h) | Survival rate of mice after SCI [1] | Protection from MPP+-induced cell death (cell viability) [2]
N[C@@H](CCC(=O)N[C@@H](CSSSC[C@H](NC(=O)CC[C@H](N)C(=O)O)C(=O)NCC(=O)O)C(=O)NCC(=O)O)C(=O)O [GSSSG, Glutathione trisulfide] | prevented motor functional deficit and paraplegia | did not change survival rate | protective effect
[Na+].[Na+].[S-2] [Na2S, reference compound] | – | – | but not Na2S, protected
